Laboratory results reported in patent publication US6221865A, “Inhibitors of protein isoprenyl transferases” (priority 1998, dated 2001).
Where a name gives a salt, the structure may show the parent alone. Read-outs that look alike come from different tables or passages of the source.

Target: T1, protein farnesyltransferase (Rattus norvegicus, UniProt Q02293+Q04631)
T1 construct: The enzyme is purified according to Reiss, Y., et al., Cell, 62: 81-88 (1990), utilizing steps one through three; from tissue; host or cells: rat brain
Experiment: Inhibition of farnesyltransferase (scintillation proximity assay, rat brain enzyme, biotin-K Ras B fragment substrate)
Format: biochemical
Settings: for % inhibition of farnesyltransferase at 1 × 10^-6 M / inhibition at 1 µM: 1 × 10^-6 M (Table 2); for inhibition at 1 µM: read-out: % inhibition of farnesyltransferase at 1 × 10^-6 M
Outline: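 Enzyme from rat brain, partly purified (steps one to three), assayed by SPA kit using 0.1 mM final biotin-K Ras B peptide as prenyl acceptor rather than biotin-lamin. Activity given as percent inhibition.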

[1] = read-out: % inhibition of farnesyltransferase at 1 × 10^-7 M, 1 × 10^-7 M (Table 3)
[2] = read-out: % inhibition of farnesyltransferase at 1 × 10^-8 M, 1 × 10^-8 M (Table 4)
[3] = read-out: % inhibition at 0.1 μM (*), Table 6, * = 0.1 μM (footnote), title prints 0.1 mM
[4] = read-out: % inhibition at 0.01 μM (**), Table 6, ** = 0.01 μM (footnote), title prints 0.01 mM
[5] = Table 6, ** = 0.01 μM (footnote), title prints 0.01 mM

T1 sequence (Q02293 whole entry, one chain of several): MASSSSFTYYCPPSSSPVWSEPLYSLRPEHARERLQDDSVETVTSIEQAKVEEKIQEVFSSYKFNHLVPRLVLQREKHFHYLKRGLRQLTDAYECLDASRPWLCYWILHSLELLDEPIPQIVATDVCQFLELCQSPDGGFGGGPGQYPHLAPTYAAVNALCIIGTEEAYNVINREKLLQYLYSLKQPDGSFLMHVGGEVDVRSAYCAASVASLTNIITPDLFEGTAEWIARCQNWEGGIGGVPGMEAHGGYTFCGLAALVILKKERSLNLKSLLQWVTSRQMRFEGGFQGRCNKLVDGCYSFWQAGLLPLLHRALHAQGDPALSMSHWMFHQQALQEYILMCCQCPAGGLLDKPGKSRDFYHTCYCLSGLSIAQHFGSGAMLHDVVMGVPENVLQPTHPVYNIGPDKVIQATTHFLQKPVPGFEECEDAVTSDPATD

## CCCCC(CCCC)OCc1ccc(C(=O)N[C@@H](CCSC)C(=O)[O-])c(-c2ccccc2C)c1.[Li+] [Example 942]
1 × 10^-8 M (Table 4)
  % inhibition of farnesyltransferase at 1 × 10^-8 M: 58%

## CCCCC(Cc1ccccc1Cl)OCc1ccc(C(=O)N[C@@H](CCSC)C(=O)O)c(-c2ccccc2C)c1 (stereo partly drawn) [Example 943]
1 × 10^-8 M (Table 4)
  % inhibition of farnesyltransferase at 1 × 10^-8 M: 79%

## CCSC[C@H](CC1CCCCC1)N(C)Cc1ccc(C(=O)N[C@@H](CCSC)C(=O)O)c(-c2ccccc2C)c1 [Example 944]
1 × 10^-8 M (Table 4)
  % inhibition of farnesyltransferase at 1 × 10^-8 M: 88%

## CCSCC(CC1CCCCC1)N(Cc1ccc(C(=O)N[C@@H](CCSC)C(=O)O)c(-c2ccccc2C)c1)CC(C)C (stereo partly drawn) [Example 945]
1 × 10^-7 M (Table 3)
  % inhibition of farnesyltransferase at 1 × 10^-7 M: 80%

## CCSC[C@H](CC1CCCCC1)N(C=O)Cc1ccc(C(=O)N[C@@H](CCSC)C(=O)O)c(-c2ccccc2C)c1 [Example 946]
1 × 10^-8 M (Table 4)
  % inhibition of farnesyltransferase at 1 × 10^-8 M: 52%

## CCSC[C@H](CC1CCCCC1)N(Cc1ccc(C(=O)N[C@@H](CCSC)C(=O)O)c(-c2ccccc2C)c1)C(C)=O [Example 947]
1 × 10^-7 M (Table 3)
  % inhibition of farnesyltransferase at 1 × 10^-7 M: 79%

## CCSC[C@H](CC1CCCCC1)N(Cc1ccc(C(=O)N[C@@H](CCSC)C(=O)O)c(-c2ccccc2C)c1)C(=O)OC(C)(C)C [Example 948]
1 × 10^-7 M (Table 3)
  % inhibition of farnesyltransferase at 1 × 10^-7 M: 75%

## CCSC[C@H](CC1CCCCC1)N(Cc1ccc(C(=O)N[C@@H](CCSC)C(=O)O)c(-c2ccccc2C)c1)C(=O)c1ccccc1 [Example 949]
1 × 10^-7 M (Table 3)
  % inhibition of farnesyltransferase at 1 × 10^-7 M: 57%

## CCCCS(=O)(=O)N(Cc1ccc(C(=O)N[C@@H](CCSC)C(=O)O)c(-c2ccccc2C)c1)[C@H](CSCC)CC1CCCCC1 [Example 950]
1 × 10^-7 M (Table 3)
  % inhibition of farnesyltransferase at 1 × 10^-7 M: 71%

## CCSC[C@H](CC1CCCCC1)N(Cc1ccc(C(=O)N[C@@H](CCSC)C(=O)O)c(-c2ccccc2C)c1)S(=O)(=O)c1ccccc1 [Example 951]
1 × 10^-7 M (Table 3)
  % inhibition of farnesyltransferase at 1 × 10^-7 M: 71%

## CSCC[C@H](NC(=O)c1ccc(NC(=O)[C@@H]2C[C@@H](O)CN2)cc1-c1ccccc1)C(=O)O [Example 952]
1 × 10^-5 M (Table 1)
  % inhibition of farnesyltransferase at 1 × 10^-5 M: > 50%

## CSCC[C@H](NC(=O)c1ccc(NC[C@@H]2C[C@H](S)CN2)cc1-c1ccccc1)C(=O)O [Example 959]
1 × 10^-7 M (Table 3)
  % inhibition of farnesyltransferase at 1 × 10^-7 M: > 50%

## CSCC[C@H](NC(=O)c1ccc(NC[C@H]2NCC[C@H]2S)cc1-c1ccccc1)C(=O)O [Example 960]
1 × 10^-8 M (Table 4)
  % inhibition of farnesyltransferase at 1 × 10^-8 M: > 50%

## CSCC[C@H](NC(=O)c1ccc(NC(=O)OCCCl)cc1-c1ccccc1)C(=O)O [Example 979]
  % inhibition of farnesyltransferase at 1 × 10^-6 M: 26%

## CSCC[C@H](NC(=O)c1ccc(CN(C)C(C)(C)Cc2ccccc2)cc1-c1ccccc1C)C(=O)O [Example 982]
  % inhibition of farnesyltransferase at 1 × 10^-6 M: 64%

## CCCCC(OCc1ccc(C(=O)N[C@@H](CCSC)C(=O)O)c(-c2ccccc2C)c1)c1cncs1 (stereo partly drawn) [Example 985]
1 × 10^-8 M (Table 4)
  % inhibition of farnesyltransferase at 1 × 10^-8 M: 89%

## CSCC[C@H](NC(=O)c1ccc(CN(CCC2CCCCC2)Cc2cncs2)cc1-c1ccccc1C)C(=O)O [Example 986]
1 × 10^-8 M (Table 4)
  % inhibition of farnesyltransferase at 1 × 10^-8 M: 95%

## CSCC[C@H](NC(=O)c1ccc(COC2CCN(Cc3ccccc3)C2)cc1-c1ccccc1C)C(=O)O (stereo partly drawn) [Example 987]
  % inhibition of farnesyltransferase at 1 × 10^-6 M: 93%

## CSCC[C@H](NC(=O)c1ccc(CN2CCC(OCc3ccccc3)C2)cc1-c1ccccc1C)C(=O)O (stereo partly drawn) [Example 988, N-[4-(3-benzyloxypyrrolidin-1-ylmethyl)-2-(2-methylphenyl)benzoyl]methionine]
  inhibition at 1 µM: 92%

## CSCC[C@H](NC(=O)c1ccc(CN2CCCC(OCc3ccccc3)C2)cc1-c1ccccc1C)C(=O)O (stereo partly drawn) [Example 989, N-[4-(3-benzyloxypiperidin-1-ylmethyl)-2-(2-methylphenyl)benzoyl]methionine]
  inhibition at 1 µM: 88%

## CSCC[C@H](NC(=O)c1ccc(CN2CCCC(OCC3CCCCC3)C2)cc1-c1ccccc1C)C(=O)O (stereo partly drawn) [Example 990, N-[4-(3-cyclohexylmethoxypiperidin-1-ylmethyl)-2-(2-methylphenyl)benzoyl]methionine]
[1]
  inhibition at 0.1 µM: 84%

## CSCC[C@H](NC(=O)c1ccc(CN2CCC[C@H]2COc2ccccc2)cc1-c1ccccc1C)C(=O)O [Example 991, N-[4-(2-phenoxymethylpyrrolidin-1-ylmethyl)-2-(2-methylphenyl)benzoyl]methionine]
[2]
  inhibition at 0.01 µM: 69%

## CSCC[C@H](NC(=O)c1ccc(CN2CCC[C@H]2COCC2CCCCC2)cc1-c1ccccc1C)C(=O)O [Example 992, N-[4-(2-cyclohexylmethoxymethylpyrrolidin-1-ylmethyl)-2-(2-methylphenyl)benzoyl]methionine]
[2]
  inhibition at 0.01 µM: 93%

## CSCC[C@H](NC(=O)c1ccc(CN2CCC[C@@H]2COCc2ccccc2)cc1-c1ccccc1C)C(=O)O [Example 993, N-[4-(2-benzyloxymethylpyrrolidin-1-ylmethyl)-2-(2-methylphenyl)benzoyl]methionine]
[1]
  inhibition at 0.1 µM: 90%

## CSCC[C@H](NC(=O)c1ccc(CO[C@H](CSC(C)(C)C)Cc2ccccc2)cc1-c1ccccc1C)C(=O)O [Example 994]
1 × 10^-8 M (Table 4)
  % inhibition of farnesyltransferase at 1 × 10^-8 M: 83%

## CCSC[C@H](CCc1ccccc1)NCc1ccc(C(=O)N[C@@H](CCSC)C(=O)O)c(-c2ccccc2C)c1 [Example 995]
1 × 10^-8 M (Table 4)
  % inhibition of farnesyltransferase at 1 × 10^-8 M: 92%

## CCCCS(=O)(=O)N(Cc1ccc(C(=O)N[C@@H](CCSC)C(=O)O)c(-c2ccccc2C)c1)CC1CCCCC1 [Example 996]
1 × 10^-8 M (Table 4)
  % inhibition of farnesyltransferase at 1 × 10^-8 M: 80%

## CSCC[C@H](NC(=O)c1ccc(/C=C/c2ccc(Oc3ccc(Cl)cc3)cc2)cc1-c1ccccc1C)C(=O)O [Example 1016, N-[4-(2-(4-(4-chlorophenoxy)phenyl)ethen-1-yl)-2-(2-methylphenyl)benzoyl]methionine lithium salt]
[3]
  inhibition at 0.1 µM: 92%

## CSCC[C@H](NC(=O)c1ccc(CN2CCN(Cc3ccccc3)CC2)cc1-c1ccccc1C)C(=O)O [Example 1025]
[4]
  inhibition at 0.01 µM: 91%

## CSCC[C@H](NC(=O)c1ccc(CN(CCF)CCC2CCCCC2)cc1-c1ccccc1C)C(=O)O [Example 1094]
[5]
  % inhibition at 0.01 μM (**): 96%

## CSCC[C@H](NC(=O)c1ccc(Cc2nnnn2Cc2ccccc2)cc1-c1ccccc1C)C(=O)O [Example 1099, N-[4-(1-benzyltetrazol-5-ylmethyl)-2-(2-methylphenyl)benzoyl]methionine]
[4]
  inhibition at 0.01 µM: 87%

## CSCC[C@H](NC(=O)c1ccc(Cc2nnnn2CC2CCCCC2)cc1-c1ccccc1C)C(=O)O [Example 1100, N-[4-(1-cyclohexylmethyltetrazol-5-ylmethyl)-2-(2-methylphenyl)benzoyl]methionine]
[4]
  inhibition at 0.01 µM: 82%

## CSCC[C@H](NC(=O)c1ccc(Cc2nnn(Cc3ccccc3)n2)cc1-c1ccccc1C)C(=O)O [Example 1101, N-[4-(2-benzyltetrazol-5-ylmethyl)-2-(2-methylphenyl)benzoyl]methionine]
[3]
  inhibition at 0.1 µM: 86%

## CSCC[C@H](NC(=O)c1ccc(Cc2nnn(CC3CCCCC3)n2)cc1-c1ccccc1C)C(=O)O [Example 1102, N-[4-(2cyclohexylmethyltetrazol-5-ylmethyl)-2-(2-methylphenyl)benzoyl]methionine]
[4]
  inhibition at 0.01 µM: 84%

## COCCN(CCC1CCCCC1)Cc1ccc(C(=O)N[C@@H](CCSC)C(=O)O)c(-c2ccccc2C)c1 [Example 1104]
[5]
  % inhibition at 0.01 μM (**): 89%

## CSCC[C@H](NC(=O)c1ccc(CN2CCOC[C@@H]2COCC2CCCCC2)cc1-c1ccccc1C)C(=O)O [Example 1109, N-[4-(3(S)-cyclohexylmethoxymethylmorpholin-4-ylmethyl)-2-(2-methylphenyl)benzoyl]methionine]
[4]
  inhibition at 0.01 µM: 74%
